According to US20250042880A1 (UNIVERSITY OF KENTUCKY RESEARCH FOUNDATION, priority 2021, published 2025):

Key:
LS174T cells [1] = assay: Cell proliferation inhibition assay, LS174T; type: cell-based; details: for IC50: Homo sapiens, LS174T, 120 h, 5 days, viable cells counted
Description: (§1) Cell proliferation inhibition assay-Cell proliferation inhibition assay was performed as previously reported (48). All compounds to be tested were dissolved at 10 mM in DMSO. The cells were seeded into 12-well plates at a density of 40,000 cells per well in 1 mL of culture medium and were cultured overnight at 37° C. Either 1 μL of the compounds or the vehicle control (DMSO) was added to the cells. After 5 days, the medium was removed, and 200 μL of 0.25% trypsin was added. The cells were resuspended in 800 μL phosphate-buffered saline (PBS) and counted with Vi-CELL XR 2.03 (Beckman Coulter, Inc. USA). The ratio R of the number of viable cells in the compound-treated group to the number of viable cells in the DMSO-treated group was called relative growth rate, and the growth inhibition was calculated as (1−R)*100.
(§2) Cell proliferation inhibition assay was conducted according to a previous report (48). The cells were split into 12-well plates at a density of 40,000 cells per well in 1 mL of culture medium and were cultured overnight at 37° C. Either 1 μL of the compounds dissolved at 10 mmol/L in DMSO or the vehicle control (DMSO) was added to the cells. After 5 days, removed the medium, and 200 μL of 0.25% trypsin was added. The cells were resuspended in phosphate-buffered saline (PBS) and counted with Vi-CELL XR 2.03 (Beckman Coulter, Inc. USA). The ratio R of the number of viable cells in the compound treatment group to the number of viable cells in the DMSO treatment group was defined as the relative growth rate, and the growth inhibition rate was calculated as (1−R)*100.

LS174T cells [2] = assay: Apoptosis by flow cytometry (Annexin V-FITC/PI); type: cell-based; details: 24 h, DBI-6 3 μM, BAY-876 1 μM, DMSO 17.28%
Description: LS174T cells were cultured in 6-well plates at 37° C. for 24 hours. 3 μmol/L DBI-6 or 1 μmol/L BAY-876 were added to the cells and incubated for 24 hours. Cells of combination therapy group were treated with both DBI-6 and BAY-876. Then cells were harvested and washed with cold PBS twice and resuspended in 500 μL Binding Buffer. SubsequenμLy, the cells were stained with Annexin V-FITC and propidium iodide (PI) and incubated in dark for 5 minutes. The percentages of apoptosis and necrosis were determined by flow cytometry (BeckmanCoulter, Brea, CA, USA).

HCT116 cells = assay: Cell proliferation inhibition assay, HCT116; type: cell-based; details: Homo sapiens, HCT-116, 120 h; 5 days, viable cells counted
Description: as §1, §2

LS174T xenografts = LS174T xenografts in Rag1 mice; type: in vivo, mouse; details: DBI-6 40 mg/kg/day IP, BAY-876 3 mg/kg oral, 12 days
Source text: Rag1 mice of 6 to 8 weeks of age were kindly provided by Institute of Genetics and Developmental Biology, Chinese Academy of sciences. LS174T cells in exponential growth phase were harvested and mixed with an equal volume of Matrigel (Corning, Glendale, Arizona). Each mouse was subcutaneously injected on the lower flanks with 2×10^6 cells. Tumor cell-injected mice were randomly divided into control and treatment groups when tumors were established and reached an average volume of 100 mm^3 (3 male and 3 female mice/group, two tumors on each mouse).
After tumors were established, DBI-6 was formulated in a mixture of ethanol (5%), 20% solutol and 20% Cremophor EL (50%) and Citric acid (45%; 50 mmol/L, pH4.5) and was daily intraperitoneally administered to the DBI-6 group at dose of 40 mg/kg mouse body weight. BAY-876 was dissolved in DMSO (10%), PEG400 (25%), Tween 80 (5%) and PBS (60%) and was given to the mice by gavage feeding to the BAY-876 group at a daily dose of 3 mg/kg mouse body weight. […]
The tumor sizes and mouse weights were measured every three days with calipers, and the tumor volume (Length×width^2/2) were calculated. […] Then the tumor sections were analyzed with H&E and Ki-67 staining. Plasma was collected and analyzed with the assay kit (Jiancheng Bioengineering Institute, Nanjing, China) according to the manufacturer's protocol. […]

SKOV-3 cells = details: growth inhibition; cited from earlier work
[3] = tested on: A2780 ovarian cancer cells; details: cited from earlier work
[4] = tested on: BT549, MDA-MB-436 and HCC70; details: 3 μM; cited from earlier work

Compound	IC50 (LS174T cells [1]) [nM]	apoptosis rate (percentage of apoptotic cells) (LS174T cells [2]) [%]	IC50 (HCT116 cells) [nM]	tumor growth (LS174T xenografts)	inhibition of proliferation of LS174T cells (LS174T cells [1])	IC50 (SKOV-3 cells) [nM]	sensitivity of A2780 ovarian cancer cells [3]	growth of TNBC cell lines BT549, MDA-MB-436 and HCC70 [4]
O=c1c(-c2ccc(Cl)c(Cl)c2)coc2cc(OCCN3CCN(CCO)CC3)ccc12 [DBI-6, 3-(3,4-dichlorophenyl)-7-(2-(4-(2-hydroxyethyl)piperazin-1-yl)ethoxy)-4H-chromen-4-one]	1140	30.61	530	Tumor growth was inhibited	–	–	–	–
Cc1c(NC(=O)c2cc(C(N)=O)nc3cc(F)ccc23)c(C(F)(F)F)nn1Cc1ccc(C#N)cc1 [BAY-876, N^4-[1-(4-cyanobenzyl)-5-methyl-3-(trifluoromethyl)-1H-pyrazol-4-yl]-7-fluoroquinoline-2,4-dicarboxamide]	130	34.57	170	Tumor growth was inhibited	inhibited the proliferation of these cell lines at nanomolar concentrations	188	resistant	did not inhibit the growth
